The text below walks through data of PubChem BioAssay (NCI).

Among the test systems are HOP-92 NSCLC; NCI-H226 lung; SN12C renal; MDA-N; SK-MEL-5 melanoma; T-47D breast; SK-MEL-28 melanoma; SNB-19 CNS; EKVX NSCLC; SR leukemia.
Experiment in all cases: NCI-60 cell line screen, 48 h

Molecules are shown by their SMILES.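 Exposure lasted 48 hours, with cells grown in 96-well plates and compounds tested at five concentrations. TGI: total growth inhibition.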 *1 amine or outer side, *2 acyl side, *3 side chain or, on linkers, in order; H or OH if unused. Where a SMILES comes first, the peptide text is derived from it. [ ]: non-standard residue; d: D form. X32 = C[C@H](N[*:1])C(=O)C(C)(C)C(=O)[*:2]; Hmpa(2S,3S) = CC[C@H](C)[C@H](O)C(=O)O; NMeY = CN[C@@H](Cc1ccc(O)cc1)C(=O)O; NMeL = CN[C@@H](CC(C)C)C(=O)O; NMeV = CN[C@H](C(=O)O)C(C)C; βAla = NCCC(=O)O A value given as a limit tells only on which side of the number the result lay.

For `CC(=O)O[C@H]1[C@H](OC(=O)CC(C)(O)CC(=O)O)C[C@]2(C)C3=C(CCC2C1(C)C)[C@]1(C)CC[C@H]([C@H]2CC[C@H](C(C)(C)O)OC2O)[C@@]1(C)[C@@H](O)C3` (stereo not given in full), the TGI is 31.1 µM in the assay with HOP-92 NSCLC; 53.8 µM in the assay on NCI-H226 lung; 32.1 µM with SN12C renal; 34.3 µM in the assay with MDA-N; 30.9 µM with SK-MEL-5 melanoma; 40.2 µM with T-47D breast. The TGI with SK-MEL-28 melanoma worked out at 31.5 µM; in the assay with SNB-19 CNS it was 33.6 µM; in the assay on EKVX NSCLC it was 38.9 µM; in the assay with SR leukemia it was 60.1 µM.
For the compound `CCCCCCCCCCCCCCCCCCN(C)CC(COP(=O)([O-])OCC[N+](C)(C)C)OC` (stereo not given), the TGI with HOP-92 NSCLC is 35.6 µM; with NCI-H226 lung, 42.4 µM; in the assay on SN12C renal, more than 50.6 µM; in the assay on MDA-N, more than 100 µM; in the assay on SK-MEL-5 melanoma, 43.8 µM; in the assay on T-47D breast, more than 100 µM. Further, the TGI in the assay on SK-MEL-28 melanoma stood at 56.8 µM; with SNB-19 CNS, 18.5 µM; in the assay with EKVX NSCLC it was 48.2 µM; in the assay on SR leukemia, 28.6 µM.
In the case of `CC1=C(C)Cc2c(O)ccc(O)c2C1`, the TGI in the assay with HOP-92 NSCLC turned out to be 36.4 µM; with NCI-H226 lung it was 42.1 µM; with SN12C renal, 45.8 µM; in the assay with MDA-N it was 30.7 µM; with SK-MEL-5 melanoma, 27.7 µM; in the assay with T-47D breast, 63.4 µM. The TGI was 25 µM in the assay with SK-MEL-28 melanoma, more than 100 µM in the assay on SNB-19 CNS, 29.5 µM in the assay with EKVX NSCLC and 38.8 µM in the assay with SR leukemia.
As to `Cc1ccnc(NC(NC(=O)c2ccccc2)(C(F)(F)F)C(F)(F)F)c1`, the TGI in the assay with HOP-92 NSCLC, in the assay on NCI-H226 lung, in the assay with SN12C renal, in the assay on MDA-N, in the assay on SK-MEL-5 melanoma and in the assay on T-47D breast was more than 100 µM in each case. The TGI with SK-MEL-28 melanoma, in the assay on SNB-19 CNS, with EKVX NSCLC and with SR leukemia was more than 100 µM each time.
As to `CO/N=C(\C)c1cccc(Nc2c3ccccc3nc3occc23)c1`, the TGI was 43.2 µM in the assay on HOP-92 NSCLC; 33.7 µM in the assay on NCI-H226 lung; 38 µM in the assay with SN12C renal; 15.8 µM in the assay on MDA-N; 19.1 µM with SK-MEL-5 melanoma; 28.8 µM in the assay with T-47D breast. The TGI turned out to be 16.5 µM in the assay on SK-MEL-28 melanoma, 45.5 µM with SNB-19 CNS, 37.2 µM in the assay on EKVX NSCLC and 16.4 µM in the assay on SR leukemia.
Turning to `Cc1cc(=O)oc2c(CNC(Cc3ccccc3)C(=O)O)c(O)ccc12` (stereo not given), the TGI in the assay with HOP-92 NSCLC, in the assay on NCI-H226 lung, in the assay with SN12C renal, in the assay on MDA-N, in the assay with SK-MEL-5 melanoma and in the assay on T-47D breast was more than 100 µM in each case. Moreover, the TGI with SK-MEL-28 melanoma, with SNB-19 CNS, with EKVX NSCLC and in the assay on SR leukemia was more than 100 µM throughout.
For `C/C(=N\NC(=S)NCCCNC(=S)N/N=C(\C)c1ccccn1)c1ccccn1`, the TGI in the assay with HOP-92 NSCLC was more than 66.2 µM; in the assay on NCI-H226 lung, more than 29.6 µM; in the assay on SN12C renal it was 11.2 µM; in the assay with MDA-N, more than 100 µM; with SK-MEL-5 melanoma it was more than 22 µM; with T-47D breast, more than 24.1 µM. Further, the TGI in the assay on SK-MEL-28 melanoma is more than 100 µM; in the assay on SNB-19 CNS, more than 69.7 µM; in the assay with EKVX NSCLC it was more than 63.9 µM; in the assay on SR leukemia, 6.19 µM.
`O=C1CSC(c2cccc([N+](=O)[O-])c2)N1c1ccc(-n2c(-c3ccccc3)nc3ccccc3c2=O)cc1` (stereo not given): the TGI in the assay on HOP-92 NSCLC, in the assay with NCI-H226 lung, with SN12C renal, with MDA-N, with SK-MEL-5 melanoma and in the assay on T-47D breast was more than 100 µM each time. Further, the TGI in the assay on SK-MEL-28 melanoma, with SNB-19 CNS, with EKVX NSCLC and in the assay with SR leukemia was more than 100 µM each time.
`CCOC(=O)CCC(NC(=O)c1ccc(OCc2ccc3nc(-c4ccccc4)c(Cl)nc3c2)cc1)C(=O)OCC` (stereo not given): the TGI is 25.5 µM with HOP-92 NSCLC; 68.8 µM in the assay on NCI-H226 lung; more than 100 µM with SN12C renal; more than 100 µM in the assay with MDA-N; more than 31.6 µM in the assay with SK-MEL-5 melanoma; more than 31.6 µM in the assay with T-47D breast. Further, the TGI in the assay on SK-MEL-28 melanoma was more than 31.6 µM; in the assay on SNB-19 CNS, 31.1 µM; in the assay on EKVX NSCLC, more than 31.6 µM; in the assay on SR leukemia it was more than 31.6 µM.
As for `N#C/C(N)=C(\C#N)NC(=O)C(=O)N/C(C#N)=C(\N)C#N`, the TGI in the assay with HOP-92 NSCLC, in the assay on NCI-H226 lung, with SN12C renal, in the assay on MDA-N, in the assay on SK-MEL-5 melanoma and with T-47D breast was more than 100 µM in each case. The TGI in the assay with SK-MEL-28 melanoma, in the assay with SNB-19 CNS, in the assay with EKVX NSCLC and in the assay on SR leukemia was more than 100 µM in each case.
In the case of `O=[N+]([O-])c1ccc(N/N=C/c2ccc(OCCCCCCCCCCCO)cc2)c([N+](=O)[O-])c1`, the TGI was 14.6 µM with HOP-92 NSCLC; 37.3 µM in the assay with NCI-H226 lung; 14.3 µM in the assay on SN12C renal; 13 µM with MDA-N; 4.66 µM with SK-MEL-5 melanoma; more than 100 µM in the assay with T-47D breast. For the same compound, the TGI in the assay with SK-MEL-28 melanoma amounted to 32.5 µM; in the assay with SNB-19 CNS, 27.1 µM; in the assay on EKVX NSCLC, 52.1 µM; with SR leukemia it was 8.94 µM.
Consider `O=C1Oc2cc(O)cc(/C=C/c3ccc(O)cc3)c2[C@@]12c1c(O)cc(O)cc1OC2c1cccc(O)c1` (stereo not given in full), for which the TGI is more than 100 µM in the assay on HOP-92 NSCLC; 93.2 µM in the assay on NCI-H226 lung; 78 µM in the assay with SN12C renal; 93.2 µM with MDA-N; 43.3 µM in the assay on SK-MEL-5 melanoma; more than 100 µM with T-47D breast. For the same compound, the TGI is more than 100 µM in the assay with SK-MEL-28 melanoma, 91.6 µM in the assay with SNB-19 CNS, more than 100 µM in the assay on EKVX NSCLC and more than 100 µM in the assay on SR leukemia.
In the case of `CC[C@H](C)[C@@H]1OC(=O)CCNC(=O)[C@@H](C)NC(=O)C(C)(C)C(=O)[C@H](C)NC(=O)[C@H](Cc2ccc(OC)cc2)N(C)C(=O)[C@H](C(C)C)N(C)C(=O)CNC(=O)[C@H](CC(C)C)N(C)C(=O)CNC1=O` (cyclo(G[NMeL]G[NMeV][NMeY](Me)[X32][dA][βAla][Hmpa(2S,3S)])), the TGI with HOP-92 NSCLC was 4.61 µM; in the assay on NCI-H226 lung, more than 38.2 µM; in the assay with SN12C renal it was more than 50 µM; in the assay with MDA-N it was more than 31.8 µM; in the assay with SK-MEL-5 melanoma, 0.228 µM; in the assay with T-47D breast, more than 50 µM. Further, the TGI is more than 36.3 µM with SK-MEL-28 melanoma, 9.63 µM in the assay with SNB-19 CNS, 22.7 µM with EKVX NSCLC and more than 25.9 µM with SR leukemia.
